Assay results from article PMC11240139, “Exploring the antitumor potential of novel quinoline derivatives via tubulin polymerization inhibition in breast cancer; design, synthesis and molecular docking” (RSC Advances, 2024).

Legend:
[1] = system: HOP-92 (non-small cell lung cancer); experiment: NCI-60 SRB cytotoxicity screen; assay type: cell-based; details: Homo sapiens
[2] = system: SR (leukemia); experiment: NCI-60 SRB cytotoxicity screen; assay type: cell-based
[3] = system: SF-295 (CNS cancer); experiment: NCI-60 SRB cytotoxicity screen; assay type: cell-based
[4] = system: MDA-MB-231/ATCC (breast cancer); experiment: NCI-60 SRB cytotoxicity screen; assay type: cell-based
[5] = system: MDA-MB-231 cells; experiment: Cell cycle analysis by flow cytometry (PI); assay type: cell-based; details: MDA-MB-231, IC50 dose, 24 h; control 10.42%
Protocol: Propidium Iodide Flow Cytometry Kit for Cell Cycle Analysis (Abcam) was used according to manufacturer's instructions. Briefly, MDA-MB 231 cells (2 × 10^5 cells) were seeded in 6-well plates and cultured for 24 h. […] Cells were collected, washed with PBS and centrifuged. Subsequently, the cells were re-suspended and fixed in 66% ethanol on ice for at least 2 h. The cells were stained with a working solution containing propidium iodide (PI) in the dark at 37 °C for 30 min. DNA content of the cells were measured by flow cytometry using FACSCalibur (BD Biosciences, Mountain View, CA). The data were analyzed using the CellQuest software (BD Biosciences).[21]

[6] = system: OVCAR-3 (ovarian cancer); experiment: NCI-60 SRB cytotoxicity screen; assay type: cell-based
[7] = system: SN12C (renal cancer); experiment: NCI-60 SRB cytotoxicity screen; assay type: cell-based
[8] = system: DU-145 (prostate cancer); experiment: NCI-60 SRB cytotoxicity screen; assay type: cell-based
[9] = system: MOLT-4 (leukemia); experiment: NCI-60 SRB cytotoxicity screen; assay type: cell-based
[10] = target: T1, tubulin (Sus scrofa, UniProt P02550+P02554); experiment: Tubulin polymerization inhibition assay; assay type: biochemical
T1 construct: purchased Cytoskeleton, USA
Protocol: Tubulin polymerization inhibition assay was performed using Tubulin Polymerization Assay Kit (Cytoskeleton, USA). 2 mg mL^−1 tubulin was dissolved in 80 mM PIPES pH 6.9, 2.0 mM MgCl2, 0.5 mM EGTA, 1.0 mM GTP and 15% glycerol. A 96-well plate was warmed to 37 °C for 10 minutes. Serial dilutions of the test compounds were prepared. The assay components were mixed. Polymerization was monitored using a plate reader at 360 nm and emission at 420 nm at 37 °C every 1 min intervals for 60 min. A dose–response curve was generated and the IC50 for tubulin polymerization inhibition was calculated.

[11] = system: HCT-116 (colon cancer); experiment: NCI-60 SRB cytotoxicity screen; assay type: cell-based
[12] = system: RPMI-8226 (leukemia); experiment: NCI-60 SRB cytotoxicity screen; assay type: cell-based
[13] = system: TK-10 (renal cancer); experiment: NCI-60 SRB cytotoxicity screen; assay type: cell-based
[14] = system: CAKI-1 (renal cancer); experiment: NCI-60 SRB cytotoxicity screen; assay type: cell-based
[15] = system: COLO 205 (colon cancer); experiment: NCI-60 SRB cytotoxicity screen; assay type: cell-based
[16] = system: KM12 (colon cancer); experiment: NCI-60 SRB cytotoxicity screen; assay type: cell-based
[17] = system: NCI-H226 (non-small cell lung cancer); experiment: NCI-60 SRB cytotoxicity screen; assay type: cell-based
[18] = Homo sapiens, SF-295, five-dose assay
[19] = Homo sapiens, OVCAR-3, five-dose assay
[20] = Homo sapiens, HCT-116, five-dose assay
[21] = Homo sapiens, COLO 205, five-dose assay
[22] = Homo sapiens, NCI-H226, five-dose assay

T1 sequence (P02554 whole entry): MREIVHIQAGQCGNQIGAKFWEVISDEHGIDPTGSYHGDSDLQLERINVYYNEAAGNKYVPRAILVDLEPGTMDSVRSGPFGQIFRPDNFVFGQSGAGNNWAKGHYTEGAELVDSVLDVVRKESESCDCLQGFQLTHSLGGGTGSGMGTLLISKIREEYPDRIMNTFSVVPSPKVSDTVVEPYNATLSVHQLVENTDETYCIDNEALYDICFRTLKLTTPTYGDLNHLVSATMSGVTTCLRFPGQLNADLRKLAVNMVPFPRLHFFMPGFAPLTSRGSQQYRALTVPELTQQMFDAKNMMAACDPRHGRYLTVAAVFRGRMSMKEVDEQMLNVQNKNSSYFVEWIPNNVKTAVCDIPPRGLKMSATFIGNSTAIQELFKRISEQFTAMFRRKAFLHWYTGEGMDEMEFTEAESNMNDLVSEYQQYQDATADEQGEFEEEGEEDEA
T1 sequence (P02550 whole entry): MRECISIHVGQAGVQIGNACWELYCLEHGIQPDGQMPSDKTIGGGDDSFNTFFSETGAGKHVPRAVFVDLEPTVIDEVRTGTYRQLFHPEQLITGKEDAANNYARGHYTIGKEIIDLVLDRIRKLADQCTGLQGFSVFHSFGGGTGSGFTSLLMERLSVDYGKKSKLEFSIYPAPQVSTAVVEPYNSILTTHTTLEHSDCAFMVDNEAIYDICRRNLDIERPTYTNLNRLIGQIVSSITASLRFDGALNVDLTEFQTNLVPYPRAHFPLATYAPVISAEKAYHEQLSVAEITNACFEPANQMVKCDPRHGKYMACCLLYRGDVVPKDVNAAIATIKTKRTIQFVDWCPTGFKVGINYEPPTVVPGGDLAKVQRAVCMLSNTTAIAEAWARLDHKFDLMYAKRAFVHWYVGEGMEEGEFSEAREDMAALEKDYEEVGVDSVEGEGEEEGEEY

## CCc1cccc2cc(-c3cc(-c4cc(OC)c(OC)c(OC)c4)[nH]c(=O)c3C#N)c(Cl)nc12 [Compound 4c, 4-(2-Chloro-8-ethylquinolin-3-yl)-2-oxo-6-(3,4,5-trimethoxyphenyl)-1,2-dihydropyridine-3-carbonitrile]
[1]; HOP-92, five-dose assay
  LC50 (lethal concentration 50): > 100 µM
[1]; HOP-92, single dose 10 μM, read-out: growth inhibition (GI%)
  inhibition at 10 µM: > 100%
[2]; five-dose assay
  GI50: 5.7 µM
  LC50: > 100 µM
  TGI: >100 µM
[2]; single dose 10 μM, read-out: growth inhibition (GI%)
  inhibition at 10 µM: 77.3%
[3]; [18]
  GI50: 19.4 µM
  LC50: > 100 µM
[3]; Homo sapiens, SF-295, single dose 10 μM, read-out: growth inhibition (GI%)
  inhibition at 10 µM: 96.4%
[3]; SF-295, five-dose assay
  TGI: >100 µM
[4]; Homo sapiens, MDA-MB-231
  GI50: 14.5 µM
[4]; Homo sapiens, MDA-MB-231, read-out: growth inhibition (GI%)
  inhibition at 10 µM: > 100%
[4]; Homo sapiens, MDA-MB-231/ATCC, five-dose assay, read-out: LC50 (the source's name)
  CC50: 69.8 µM
[4]; MDA-MB-231/ATCC, five-dose assay
  TGI: 31.80 µM
[4]; MDA-MB-231/ATCC, single dose 10 μM
  growth inhibition (GI%): lethal effect
[5]
  cells population at G2 and M phases: 22.84%
[6]; [19]
  GI50: 14.2 µM
  LC50 (50% lethal concentration): 62.3 µM
[6]; Homo sapiens, OVCAR-3, single dose 10 μM, read-out: growth inhibition (GI%)
  inhibition at 10 µM: > 100%
[6]; OVCAR-3, five-dose assay
  TGI: 29.80 µM
[6]; OVCAR-3, single dose 10 μM
  growth inhibition (GI%): lethal effect
[7]; Homo sapiens, five-dose assay
  GI50: 10.3 µM
  LC50 (concentration killing 50% of cells): 61.8 µM
[7]; Homo sapiens, single dose 10 μM, read-out: growth inhibition (GI%)
  inhibition at 10 µM: > 100%
[7]; five-dose assay
  TGI: 25.20 µM
[7]; single dose 10 μM
  growth inhibition (GI%): lethal effect
[8]; DU-145, five-dose assay
  TGI: 38.00 µM
[8]; Homo sapiens, DU-145, five-dose assay
  GI50: 15.5 µM
[8]; Homo sapiens, DU-145, five-dose assay, read-out: LC50 (the source's name)
  CC50: 93.5 µM
[8]; Homo sapiens, DU-145, single dose 10 μM, read-out: growth inhibition (GI%)
  inhibition at 10 µM: 80.5%
[9]; Homo sapiens, MOLT-4, five-dose assay
  GI50: 8.17 µM
[9]; Homo sapiens, MOLT-4, five-dose assay, read-out: LC50 (the source's name)
  CC50: > 100 µM
[9]; Homo sapiens, MOLT-4, single dose 10 μM, read-out: growth inhibition (GI%)
  inhibition at 10 µM: 76.4%
[9]; MOLT-4, five-dose assay
  TGI: 79.90 µM
[10]
  IC50: 17 ± 0.3 µM
[11]; HCT-116, five-dose assay
  TGI: 33.30 µM
[11]; [20]
  GI50: 14.1 µM
  LC50: 78.4 µM
[11]; Homo sapiens, HCT-116, single dose 10 μM, read-out: growth inhibition (GI%)
  inhibition at 10 µM: 69.1%
[12]; Homo sapiens, RPMI-8226, five-dose assay
  GI50: 5.16 µM
[12]; Homo sapiens, RPMI-8226, five-dose assay, read-out: LC50 (the source's name)
  CC50: > 100 µM
[12]; Homo sapiens, RPMI-8226, single dose 10 μM, read-out: growth inhibition (GI%)
  inhibition at 10 µM: 74.5%
[12]; RPMI-8226, five-dose assay
  TGI: >100 µM
[13]; Homo sapiens, TK-10, five-dose assay
  GI50: 17.5 µM
[13]; Homo sapiens, TK-10, five-dose assay, read-out: LC50 (the source's name)
  CC50: > 100 µM
[13]; Homo sapiens, TK-10, single dose 10 μM, read-out: growth inhibition (GI%)
  inhibition at 10 µM: > 100%
[13]; TK-10, five-dose assay
  TGI: 34.50 µM
[13]; TK-10, single dose 10 μM
  growth inhibition (GI%): lethal effect
[14]; CAKI-1, five-dose assay
  TGI: 22.90 µM
[14]; Homo sapiens, CAKI-1, five-dose assay
  GI50: 10.7 µM
[14]; Homo sapiens, CAKI-1, five-dose assay, read-out: LC50 (the source's name)
  CC50: 49.2 µM
[14]; Homo sapiens, CAKI-1, single dose 10 μM, read-out: growth inhibition (GI%)
  inhibition at 10 µM: 95.1%
[15]; COLO 205, five-dose assay
  TGI: >100 µM
[15]; [21]
  GI50: 45.6 µM
  LC50: > 100 µM
[15]; Homo sapiens, COLO 205, single dose 10 μM, read-out: growth inhibition (GI%)
  inhibition at 10 µM: < 10%
[16]; Homo sapiens, KM12, five-dose assay
  GI50: 33.6 µM
[16]; Homo sapiens, KM12, five-dose assay, read-out: LC50 (the source's name)
  CC50: > 100 µM
[16]; Homo sapiens, KM12, single dose 10 μM, read-out: growth inhibition (GI%)
  inhibition at 10 µM: 55.1%
[16]; KM12, five-dose assay
  TGI: >100 µM
[17]; [22]
  GI50: 10.9 µM
  LC50 (lethal concentration, 50% cell kill): 97.7 µM
[17]; Homo sapiens, NCI-H226, single dose 10 μM, read-out: growth inhibition (GI%)
  inhibition at 10 µM: > 100%
[17]; NCI-H226, five-dose assay
  TGI: 32.60 µM
[17]; NCI-H226, single dose 10 μM
  growth inhibition (GI%): lethal effect
